Tested on: major drug metabolizing cytochrome P450 (CYP) enzymes
Experiment: Reversible and time-dependent inhibition (TDI) of major CYP enzymes, human liver microsomes
Assay type: in vitro ADME
Conditions: in vitro concentrations of 100 μM or lower
Protocol: Inhibition was screened using a cocktail incubation with CYP specific substrates for eight major drug metabolizing CYP enzymes (CYPs 1A2, 2A6, 2B6, 2C8, 2C9, 2C19, 2D6 and 3A4) in incubations with a pool of human liver microsomes. In reversible inhibition, MIN-102 was incubated with buffer, microsomes, cofactor NADPH and CYP-specific substrate cocktail mix for 15 min. In TDI study, buffer and microsomes were preincubated with MIN-102 in the presence and absence of cofactor NADPH for 0 or 30 min to elucidate the possible time-dependency of inhibition. Secondary incubation was conducted with CYP-specific substrate cocktail mix for 30 min. MIN-102 was used at final concentrations of 0.01, 0.1, 1, 10, and 100 μM in both assays.

Compound: CC(O)c1ccc(CCOc2ccc(CC3SC(=O)NC3=O)cc2)nc1 (racemic) [MIN-102, 5-[[4-[2-[5-(1-hydroxyethyl)pyridin-2-yl]ethoxy]phenyl]methyl]-1,3-thiazolidine-2,4-dione]
- reversible or time-dependent inhibition towards major CYP enzymes: did not cause remarkable reversible or time-dependent inhibition

From patent publication US11938122B2, “5-[[4-[2-[5-(1-hydroxyethyl)pyridin-2-yl]ethoxy]phenyl]methyl]-1,3- thiazolidine-2,4-dione for treating nonalcoholic fatty liver disease” (Minoryx Therapeutics S.L., priority 2016, dated 2024)
